Experimental data: ChEMBL document CHEMBL4229523, “Monoterpene's multiple free radical scavenging capacity as compared with the radioprotective agent cysteamine and amifostine” (Bioorg Med Chem Lett, 2018)

Columns and labels:
Format in all cases: functional
[1] = Antioxidant activity assessed as trolox equivalent of hydroxyl radical scavenging activity by DMPO spin trap-based ESR spectrometric method
[2] = Antioxidant activity assessed as trolox equivalent of alkoxyl radical scavenging activity by DMPO spin trap-based ESR spectrometric method
[3] = Antioxidant activity assessed as trolox equivalent of tert-butyl peroxyl radical scavenging activity by CYPMPO spin trap-based ESR spectrometric method
[4] = Antioxidant activity assessed as trolox equivalent of superoxide radical scavenging activity by CYPMPO spin trap-based ESR spectrometric method
[5] = Antioxidant activity assessed as trolox equivalent of singlet oxygen scavenging activity by TMPD spin trap-based ESR spectrometric method
[6] = Antioxidant activity assessed as trolox equivalent of methyl radical scavenging activity by DMPO spin trap-based ESR spectrometric method
[7] = Antioxidant activity assessed as rate of methyl radical scavenging activity by DMPO spin trap-based ESR spectrometric method

Structure (SMILES)	Activity [1]	Activity [2]	Activity [3]	Activity [4]	Activity [5]	Activity [6]	K [7]
Cc1ccc(C(C)C)c(O)c1	0.3 equiv	0.013 equiv	0.22 equiv	0.24 equiv	0.16 equiv	0 equiv	–
NCCS	1.5 equiv	0.045 equiv	0.08 equiv	0.13 equiv	1.1 equiv	0.18 equiv	2.5 ×10⁶ /M/s
CC1CCC(C(C)C)C(O)C1 (configuration not stated)	0.49 equiv	0 equiv	0.31 equiv	0.39 equiv	0.22 equiv	0 equiv	–
C=CC(C)(O)CCC=C(C)C (configuration not stated)	0.38 equiv	0.045 equiv	0 equiv	0.27 equiv	0.046 equiv	0 equiv	–
NCCCNCCSP(=O)(O)O	0.76 equiv	0.054 equiv	0.058 equiv	0.3 equiv	0.17 equiv	0.2 equiv	2.8 ×10⁶ /M/s
